Common to all, as to assay: biochemical
Test [1] deals with T1, panel of 374 wild-type kinases (Homo sapiens, UniProt Q9Y5S2).
T1 construct: purchased Reaction Biology Corporation
The conditions noted are these: read-out: % Enzyme Activity (relative to DMSO controls), MRCKb/CDC42BPB.

In test [2] the target is T2, panel of 374 wild-type kinases (Homo sapiens, UniProt P29320).
T2 construct: purchased Reaction Biology Corporation
T2 sequence (P29320 21-983): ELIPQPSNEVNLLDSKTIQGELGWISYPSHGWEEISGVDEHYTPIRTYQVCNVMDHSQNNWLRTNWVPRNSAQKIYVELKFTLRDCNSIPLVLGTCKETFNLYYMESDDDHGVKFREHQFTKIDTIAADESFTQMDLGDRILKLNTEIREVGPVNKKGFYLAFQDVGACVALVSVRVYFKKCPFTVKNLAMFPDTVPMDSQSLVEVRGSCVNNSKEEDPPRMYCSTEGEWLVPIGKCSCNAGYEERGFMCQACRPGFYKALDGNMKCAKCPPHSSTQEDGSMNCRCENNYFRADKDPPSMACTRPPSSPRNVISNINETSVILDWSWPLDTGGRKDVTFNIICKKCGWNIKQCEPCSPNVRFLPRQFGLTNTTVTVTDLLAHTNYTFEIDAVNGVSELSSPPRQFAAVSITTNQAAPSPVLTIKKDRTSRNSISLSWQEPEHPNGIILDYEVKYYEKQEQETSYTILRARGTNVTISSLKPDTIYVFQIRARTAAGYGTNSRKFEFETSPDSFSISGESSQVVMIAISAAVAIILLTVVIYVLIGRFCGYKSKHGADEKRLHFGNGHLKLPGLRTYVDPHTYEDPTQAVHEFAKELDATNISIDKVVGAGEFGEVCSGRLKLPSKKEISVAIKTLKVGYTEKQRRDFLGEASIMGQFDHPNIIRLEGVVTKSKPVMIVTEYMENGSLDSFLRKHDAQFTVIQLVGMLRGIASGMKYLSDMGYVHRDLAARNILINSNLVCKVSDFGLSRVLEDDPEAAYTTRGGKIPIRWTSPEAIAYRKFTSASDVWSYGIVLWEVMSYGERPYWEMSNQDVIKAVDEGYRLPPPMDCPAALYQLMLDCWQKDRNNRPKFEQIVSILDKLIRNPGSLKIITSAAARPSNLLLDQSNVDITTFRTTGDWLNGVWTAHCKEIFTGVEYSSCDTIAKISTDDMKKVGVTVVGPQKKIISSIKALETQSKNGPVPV
The settings on record: read-out: % Enzyme Activity (relative to DMSO controls), EPHA3.

Test [3] deals with T3, panel of 374 wild-type kinases (Homo sapiens, UniProt Q05397).
T3 construct: purchased Reaction Biology Corporation
T3 sequence (Q05397 whole entry): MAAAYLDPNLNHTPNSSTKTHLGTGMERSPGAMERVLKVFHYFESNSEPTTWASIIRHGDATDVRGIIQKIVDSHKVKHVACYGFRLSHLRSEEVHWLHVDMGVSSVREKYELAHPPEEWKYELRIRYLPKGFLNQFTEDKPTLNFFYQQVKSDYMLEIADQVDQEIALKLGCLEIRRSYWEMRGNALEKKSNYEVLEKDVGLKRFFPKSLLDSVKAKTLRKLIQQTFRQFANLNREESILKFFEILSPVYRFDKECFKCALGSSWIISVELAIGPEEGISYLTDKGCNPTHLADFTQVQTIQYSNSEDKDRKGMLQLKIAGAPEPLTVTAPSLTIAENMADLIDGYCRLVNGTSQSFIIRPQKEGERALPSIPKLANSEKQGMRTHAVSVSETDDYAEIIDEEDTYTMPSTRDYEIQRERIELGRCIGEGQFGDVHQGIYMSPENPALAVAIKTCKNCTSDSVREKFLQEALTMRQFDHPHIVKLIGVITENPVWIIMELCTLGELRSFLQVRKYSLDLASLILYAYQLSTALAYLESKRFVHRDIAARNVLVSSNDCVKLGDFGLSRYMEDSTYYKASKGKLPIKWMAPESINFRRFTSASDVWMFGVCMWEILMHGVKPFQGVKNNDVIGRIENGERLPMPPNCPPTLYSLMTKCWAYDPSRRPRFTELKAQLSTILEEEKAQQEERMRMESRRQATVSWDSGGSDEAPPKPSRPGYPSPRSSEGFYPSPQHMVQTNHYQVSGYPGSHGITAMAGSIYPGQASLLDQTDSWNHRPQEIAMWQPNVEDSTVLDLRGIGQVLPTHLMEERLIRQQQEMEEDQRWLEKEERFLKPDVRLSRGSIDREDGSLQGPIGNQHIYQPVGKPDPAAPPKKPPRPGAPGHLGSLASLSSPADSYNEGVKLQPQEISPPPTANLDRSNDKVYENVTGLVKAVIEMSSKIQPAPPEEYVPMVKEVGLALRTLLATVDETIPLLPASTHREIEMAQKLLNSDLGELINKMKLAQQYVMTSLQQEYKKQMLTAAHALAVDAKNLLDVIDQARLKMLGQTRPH
The settings on record: read-out: % Enzyme Activity (relative to DMSO controls), FAK/PTK2.

Test [4] has as its target T4, panel of 374 wild-type kinases (Homo sapiens, UniProt P15735).
T4 construct: purchased Reaction Biology Corporation
T4 sequence (P15735 1-406): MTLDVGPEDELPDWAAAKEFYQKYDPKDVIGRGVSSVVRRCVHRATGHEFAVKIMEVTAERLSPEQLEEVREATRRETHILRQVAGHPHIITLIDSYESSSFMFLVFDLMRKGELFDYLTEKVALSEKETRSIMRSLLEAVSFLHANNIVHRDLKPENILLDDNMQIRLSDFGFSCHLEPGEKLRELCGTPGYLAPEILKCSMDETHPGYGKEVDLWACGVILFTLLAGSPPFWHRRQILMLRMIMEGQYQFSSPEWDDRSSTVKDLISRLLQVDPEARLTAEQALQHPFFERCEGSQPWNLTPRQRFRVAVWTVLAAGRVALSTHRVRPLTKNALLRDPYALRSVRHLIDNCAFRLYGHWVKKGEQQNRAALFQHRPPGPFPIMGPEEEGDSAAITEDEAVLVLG
The settings on record: read-out: % Enzyme Activity (relative to DMSO controls), kinase PHKg2.

Test [5] concerns the target T5, panel of 374 wild-type kinases (Homo sapiens, UniProt Q14289).
T5 construct: purchased Reaction Biology Corporation
The settings on record: read-out: % Enzyme Activity (relative to DMSO controls), kinase PYK2.

For test [6], the target named is T6, panel of 374 wild-type kinases (Homo sapiens, UniProt P29322).
T6 construct: purchased Reaction Biology Corporation
T6 sequence (P29322 28-1005): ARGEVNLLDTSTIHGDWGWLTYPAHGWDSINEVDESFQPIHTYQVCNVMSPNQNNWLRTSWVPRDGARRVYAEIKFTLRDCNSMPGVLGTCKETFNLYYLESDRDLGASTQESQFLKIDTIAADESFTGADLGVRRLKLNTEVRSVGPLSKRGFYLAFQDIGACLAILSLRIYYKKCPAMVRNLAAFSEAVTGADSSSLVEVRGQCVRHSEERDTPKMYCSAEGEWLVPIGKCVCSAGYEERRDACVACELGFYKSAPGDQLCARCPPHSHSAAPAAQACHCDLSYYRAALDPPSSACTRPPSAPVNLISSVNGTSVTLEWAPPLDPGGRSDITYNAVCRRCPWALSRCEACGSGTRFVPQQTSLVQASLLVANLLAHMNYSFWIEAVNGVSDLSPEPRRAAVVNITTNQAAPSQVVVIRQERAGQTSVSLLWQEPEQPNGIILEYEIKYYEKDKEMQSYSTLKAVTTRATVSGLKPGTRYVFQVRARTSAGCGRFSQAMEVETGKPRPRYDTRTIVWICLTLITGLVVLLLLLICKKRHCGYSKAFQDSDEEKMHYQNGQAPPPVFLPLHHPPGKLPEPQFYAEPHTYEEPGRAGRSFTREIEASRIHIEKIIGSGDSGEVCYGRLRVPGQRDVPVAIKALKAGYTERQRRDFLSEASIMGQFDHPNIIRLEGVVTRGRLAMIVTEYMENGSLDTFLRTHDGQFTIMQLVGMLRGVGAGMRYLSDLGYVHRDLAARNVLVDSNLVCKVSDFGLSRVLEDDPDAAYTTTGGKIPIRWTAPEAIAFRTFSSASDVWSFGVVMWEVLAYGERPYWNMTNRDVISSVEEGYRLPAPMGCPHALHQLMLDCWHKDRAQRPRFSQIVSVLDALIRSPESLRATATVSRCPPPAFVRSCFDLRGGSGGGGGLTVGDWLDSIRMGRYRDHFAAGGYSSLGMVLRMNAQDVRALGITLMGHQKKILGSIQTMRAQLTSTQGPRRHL
The settings on record: read-out: % Enzyme Activity (relative to DMSO controls), EPHA8.

The structures appear in SMILES notation.

T1 sequence (Q9Y5S2 whole entry): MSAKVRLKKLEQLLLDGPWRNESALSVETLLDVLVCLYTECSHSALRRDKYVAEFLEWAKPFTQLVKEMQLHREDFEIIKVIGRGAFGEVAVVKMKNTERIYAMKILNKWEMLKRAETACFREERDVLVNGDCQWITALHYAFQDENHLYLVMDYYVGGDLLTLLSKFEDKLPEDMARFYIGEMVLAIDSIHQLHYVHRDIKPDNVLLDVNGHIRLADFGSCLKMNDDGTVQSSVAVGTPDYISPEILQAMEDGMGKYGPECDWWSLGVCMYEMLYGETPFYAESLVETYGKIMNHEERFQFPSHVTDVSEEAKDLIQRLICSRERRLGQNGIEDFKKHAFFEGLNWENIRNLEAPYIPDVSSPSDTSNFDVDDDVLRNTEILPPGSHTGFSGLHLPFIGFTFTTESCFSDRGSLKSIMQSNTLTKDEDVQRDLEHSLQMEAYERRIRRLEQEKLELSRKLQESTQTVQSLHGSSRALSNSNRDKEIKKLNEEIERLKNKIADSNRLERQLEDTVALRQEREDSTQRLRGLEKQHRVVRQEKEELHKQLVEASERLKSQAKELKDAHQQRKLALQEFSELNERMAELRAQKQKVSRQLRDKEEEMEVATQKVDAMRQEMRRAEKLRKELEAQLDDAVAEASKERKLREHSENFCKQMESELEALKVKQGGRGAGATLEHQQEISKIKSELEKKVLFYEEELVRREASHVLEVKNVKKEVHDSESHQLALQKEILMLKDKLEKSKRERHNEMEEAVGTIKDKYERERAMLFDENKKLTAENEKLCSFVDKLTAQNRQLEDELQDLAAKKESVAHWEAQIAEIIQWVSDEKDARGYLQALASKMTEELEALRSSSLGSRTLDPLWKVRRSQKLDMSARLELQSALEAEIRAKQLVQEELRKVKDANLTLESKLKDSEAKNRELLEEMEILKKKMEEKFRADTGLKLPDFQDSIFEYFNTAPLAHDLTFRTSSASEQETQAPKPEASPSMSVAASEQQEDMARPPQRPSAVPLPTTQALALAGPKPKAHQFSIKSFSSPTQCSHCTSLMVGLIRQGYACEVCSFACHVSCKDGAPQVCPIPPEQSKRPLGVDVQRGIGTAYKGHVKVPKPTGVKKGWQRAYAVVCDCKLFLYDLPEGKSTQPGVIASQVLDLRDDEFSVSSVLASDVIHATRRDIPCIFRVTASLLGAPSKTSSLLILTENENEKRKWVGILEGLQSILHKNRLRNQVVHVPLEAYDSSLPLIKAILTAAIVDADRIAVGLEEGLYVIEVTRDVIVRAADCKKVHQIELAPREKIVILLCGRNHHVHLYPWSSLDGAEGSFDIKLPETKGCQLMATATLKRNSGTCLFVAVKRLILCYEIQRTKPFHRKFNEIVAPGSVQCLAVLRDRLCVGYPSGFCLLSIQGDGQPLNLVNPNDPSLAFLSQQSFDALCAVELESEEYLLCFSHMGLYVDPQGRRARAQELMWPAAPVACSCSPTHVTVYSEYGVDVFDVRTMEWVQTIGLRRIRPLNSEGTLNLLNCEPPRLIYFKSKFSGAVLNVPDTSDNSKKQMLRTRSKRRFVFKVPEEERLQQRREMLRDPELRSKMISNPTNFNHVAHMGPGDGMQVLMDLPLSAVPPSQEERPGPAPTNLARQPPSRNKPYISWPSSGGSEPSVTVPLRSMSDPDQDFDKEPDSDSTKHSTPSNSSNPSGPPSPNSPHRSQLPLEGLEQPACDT
T5 sequence (Q14289 whole entry): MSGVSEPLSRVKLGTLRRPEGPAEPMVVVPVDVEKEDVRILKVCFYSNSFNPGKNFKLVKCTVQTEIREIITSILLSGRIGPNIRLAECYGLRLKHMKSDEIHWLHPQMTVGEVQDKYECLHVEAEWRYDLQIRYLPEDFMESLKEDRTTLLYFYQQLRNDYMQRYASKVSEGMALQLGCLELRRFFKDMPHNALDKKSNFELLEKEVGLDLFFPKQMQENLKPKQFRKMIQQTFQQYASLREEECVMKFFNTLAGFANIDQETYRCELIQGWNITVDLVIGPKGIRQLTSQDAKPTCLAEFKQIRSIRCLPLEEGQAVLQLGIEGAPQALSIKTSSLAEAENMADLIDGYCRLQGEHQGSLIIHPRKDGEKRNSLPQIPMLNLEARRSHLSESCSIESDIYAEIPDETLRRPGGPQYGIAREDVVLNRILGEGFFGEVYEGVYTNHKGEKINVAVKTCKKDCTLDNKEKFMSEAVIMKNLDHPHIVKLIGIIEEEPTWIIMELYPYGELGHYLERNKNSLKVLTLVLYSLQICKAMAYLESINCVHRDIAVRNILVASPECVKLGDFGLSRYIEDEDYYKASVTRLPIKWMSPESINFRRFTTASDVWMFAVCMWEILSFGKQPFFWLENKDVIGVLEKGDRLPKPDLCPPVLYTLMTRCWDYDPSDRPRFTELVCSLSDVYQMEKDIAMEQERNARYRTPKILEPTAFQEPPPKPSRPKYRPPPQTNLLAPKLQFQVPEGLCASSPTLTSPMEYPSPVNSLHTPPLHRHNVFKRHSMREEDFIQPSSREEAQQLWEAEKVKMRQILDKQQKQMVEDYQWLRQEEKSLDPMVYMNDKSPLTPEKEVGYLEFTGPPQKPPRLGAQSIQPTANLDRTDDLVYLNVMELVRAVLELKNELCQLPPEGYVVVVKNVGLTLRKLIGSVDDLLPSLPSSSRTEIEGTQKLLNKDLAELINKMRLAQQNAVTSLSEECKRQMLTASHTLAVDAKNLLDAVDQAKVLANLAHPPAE

As to `O=C(Nc1cnn(-c2csc(C(=O)NC3COC3)c2)c1)Nc1ccccc1Cl` [Compound 17, 4-(4-(3-(2-chlorophenyl)ureido)-1H-pyrazol-1-yl)-N-(oxetan-3-yl)thiophene-2-carboxamide], the remaining activity at 5 µM in test [1] is 97.1%; in test [2], 104%; in test [3] it was 95.7%; in test [4] it was 101%; in test [5], 93.5%; in test [6] it was 103%.

Turning to `O=C(Nc1cnn(-c2csc(C(=O)NC3COC3)c2)c1)Nc1c(F)cccc1Cl` [Compound 25, 4-(4-(3-(2-chloro-6-fluorophenyl)ureido)-1H-pyrazol-1-yl)-N-(oxetan-3-yl)thiophene-2-carboxamide], the remaining activity at 5 µM in test [1] stood at 89%; in test [2], 96.1%; in test [3] it was 89%; in test [4] it was 131%; in test [5], 91%; in test [6], 93.8%.

For `Cc1sc(C(=O)NC2COC2)cc1-n1cc(NC(=O)Nc2c(F)cccc2Cl)cn1` [Compound 27, 4-(4-(3-(2-chloro-6-fluorophenyl)ureido)-1H-pyrazol-1-yl)-5-methyl-N-(oxetan-3-yl)thiophene-2-carboxamide], the remaining activity at 10 µM in test [1] (10 uM) was determined as 112%; in test [2] (10 uM), 109%; in test [3] (10 uM), 104%; in test [4] (10 uM), 88.5%; in test [5] (10 uM), 104%; in test [6] (10 uM), 91.7%.

Source of the values: patent US20240246942A1, “KINASE INHIBITORS FOR THE TREATMENT OF NEURODEGENERATIVE DISEASES” (priority 2020, published 2024).
